Source: patent publication US10166221B2, “Formulations of an LSD1 inhibitor” (Incyte Corporation, priority 2016, dated 2019)
Counter-ions that a name gives are not always drawn.

Tests used:
[1] = Excipient compatibility, mass spectroscopy HPLC method (% Compound 2); format: physicochemical
Text: (low and high RH at both temperatures).

[2] = Crystalline form change under storage conditions; format: physicochemical; details: storage conditions of 25° C./60% RH and 40° C./75% RH
Protocol: (§1) Form HI of Compound 1 di-tosylate salt was prepared during the process of drying a wet sample of Compound 1 di-tosylate salt, Form I, under ambient conditions. Form I slowly absorbed atmospheric moisture and gradually changed to crystalline Form HI.
as §1, with “HI. […] Form HI can also be generated by purging humidified air (e.g., 60-85% RH) through Form I solid.” for “HI.”

[3] = Excipient compatibility, UV HPLC method (degradation, impurities other than Compound 2)
Protocol: This study was performed to determine stability of Compound 1 di-tosylate salt, Form I, in combination with various oral solid dosage form excipients. […] The data of the blends were compared with a control sample (Compound 1 di-tosylate salt alone) to assess the effect of each excipient relative to Compound 1 di-tosylate salt alone.
Blends were prepared by screening the components together; aliquots were then weighed for stability testing. The binary blend samples were initially stored under accelerated conditions (50° C./dry, 50° C./75% RH) in open glass vials and analyzed by HPLC to determine the potential for drug substance degradation with each excipient. […] Analysis of a control (Compound 1 di-tosylate salt alone) was included for comparison at each condition.
Compound 1 di-tosylate salt was blended at the desired ratio of excipient to drug (see Table 7 below) by weighing each material, mixing with a spatula in a vial, and screening the mixture 5 times with an 18 mesh screen. A control sample was included for comparison to the blends. The weight equivalent of approximately 4 mg of Compound 1 di-tosylate salt was added to each glass vial and initially set-up at 50° C./dry (<20% RH) and 50° C./75% RH. Based on results after 1 week at 50° C.; additional samples were set-up at 40° C./dry and 40° C./75% RH. […] The 75% RH chamber was maintained by using a saturated sodium chloride solution in water (inside a closed chamber). The humidity of the 75% RH chamber was verified with a hygrometer (VWR brand). Samples were tested by HPLC after 1 week at 50° C. and 1 and 2 weeks at 40° C. (low and high RH at both temperatures). Data were also measured for samples at 20° C. in closed vials.
Samples were analyzed by HPLC using the method described below after dilution in 85% H2O (0.1% TFA)/15% acetonitrile to 4 mL, sonication for 5 minutes, and filtration (0.45 μm Acrodisc GHP). One injection per sample was performed at each stability station. Two methods were performed on the stability samples: a UV based HPLC method and a mass spectroscopy HPLC method performed for one impurity (Compound 2).
UV HPLC Method-Instrument: Agilent 1260 HPLC; Column: Ascentis Express C18 4.6×150 mm; Mobile Phase A: Water (0.1% TFA); Mobile Phase B: Acetonitrile (0.1% TFA); Flow Rate: 1.0 mL/min; Injection volume: 10 μL; UV Detection 214 nm; Column Temperature: 30° C.; Run Time: 33 min; Sample concentration: 1.0 mg/mL as salt; Threshold: 0.1%; Gradient Program:
Accelerated storage (50° C., 40° C.) conditions were used to identify potential drug-excipient interactions.

[4] = DVS moisture uptake analysis; format: physicochemical
Protocol: Form DH was characterized by DVS. The DVS analysis was performed on a TA Instruments Vapor Sorption Analyzer, model VTI-SA^+. Form DH was generated by pre-drying Form HI on VTI at 40° C. with 0% RH N2 for 3 h. Then the moisture uptake profile was completed in one cycle in 5% RH increments with adsorption from 0% RH to 95% RH followed by desorption in 5% increments from 95% to […]. The equilibration criteria were 0.0010 wt % in 5 minutes with a maximum equilibration time of 180 minutes. All adsorption and desorption were performed at 25° C.

| % Compound 2 ([1]; 1 w 50° C./75% RH) [%] | % Compound 2 ([1]; 1 w 50° C./dry) [%] | 2 W 20° C. % of cmpd 2 ([1]; 20° C., 2 w, closed vials) [%] | wt % of Compound 2 ([1]; 40° C. (dry) 1 W) [wt %] | wt % of Compound 2 ([1]; 40° C. (dry) 2 W) [wt %] | wt % of Compound 2 ([1]; 40° C./75% RH 1 w) [wt %] | wt % of Compound 2 ([1]; 40° C./75% RH 2 w) [wt %] | Crystalline form change on storage [2] | Compound 1 di-tosylate salt degradation (UV Method) ([3]; 1 W 40° C./75% RH) [%] | Compound 1 di-tosylate salt degradation (UV Method) ([3]; 1 W 40° C./dry) [%] | Compound 1 di-tosylate salt degradation (UV Method) ([3]; 1 w 50° C./75% RH, open glass vials, peak area percent) [%] | Compound 1 di-tosylate salt degradation (UV Method) ([3]; 1 w 50° C./dry (<20% RH), open glass vials, peak area percent) [%] | Compound 1 di-tosylate salt degradation (UV Method) ([3]; 2 W 40° C./75% RH) [%] | Compound 1 di-tosylate salt degradation (UV Method) ([3]; 2 W 40° C./dry) [%] | 20° C. 2 w UV method ([3]; 20° C., 2 w, closed vials) [%] | Hygroscopicity (DVS) ([4]; adsorption 0% RH to 95% RH, desorption 95% to 85% RH, 25° C.) | Solid collected after DVS ([4]; after DVS at 85% RH) | SMILES |
| --- | --- | --- | --- | --- | --- | --- | --- | --- | --- | --- | --- | --- | --- | --- | --- | --- | --- |
| 2.47 | 2.37 | 0.43 | 1.4 | 3.4 | 1.3 | 1.9 | converted to Form HI | <0.1 | 0.43 | 0.3 | 1.4 | <0.1 | 0.86 | <0.1 |  |  | COCC1(CN[C@@H]2C[C@H]2c2ccccc2)CCN(CC2(C(=O)O)CCC2)CC1 [Cmpd 1 di-tosylate salt alone, 1-{[4-(methoxymethyl)-4-({[(1R,2S)-2-phenylcyclopropyl]amino}methyl)piperidin-1-yl]methyl}cyclobutanecarboxylic acid bis(4-methylbenzenesulfonate)] |
|  |  |  |  |  |  |  |  |  |  |  |  |  |  |  | hygroscopic | Form HI | COCC1(CN[C@@H]2C[C@H]2c2ccccc2)CCN(CC2(C(=O)O)CCC2)CC1 [Form DH] |
